Assay results from patent publication US9057727B2, “Screening methods using G-protein coupled receptors and related compositions” (The General Hospital Corporation, priority 2007, dated 2015).
Square brackets hold non-standard residues; d marks the D form. Peptide text beside a SMILES is read from it. Nle = CCCC[C@H](N)C(=O)O

Legend:
hPTHR [1] = target: T1, hPTHR (Homo sapiens, UniProt Q03431); assay: Inositol phosphate production in COS-7/hPTHR cells; assay type: cell-based; parameters: expressed in transfected cells; host or cells: COS-7, transient (Fugene-6); settings: basal 330 ± 8 cpm/well not subtracted
T1 sequence (Q03431 27-593): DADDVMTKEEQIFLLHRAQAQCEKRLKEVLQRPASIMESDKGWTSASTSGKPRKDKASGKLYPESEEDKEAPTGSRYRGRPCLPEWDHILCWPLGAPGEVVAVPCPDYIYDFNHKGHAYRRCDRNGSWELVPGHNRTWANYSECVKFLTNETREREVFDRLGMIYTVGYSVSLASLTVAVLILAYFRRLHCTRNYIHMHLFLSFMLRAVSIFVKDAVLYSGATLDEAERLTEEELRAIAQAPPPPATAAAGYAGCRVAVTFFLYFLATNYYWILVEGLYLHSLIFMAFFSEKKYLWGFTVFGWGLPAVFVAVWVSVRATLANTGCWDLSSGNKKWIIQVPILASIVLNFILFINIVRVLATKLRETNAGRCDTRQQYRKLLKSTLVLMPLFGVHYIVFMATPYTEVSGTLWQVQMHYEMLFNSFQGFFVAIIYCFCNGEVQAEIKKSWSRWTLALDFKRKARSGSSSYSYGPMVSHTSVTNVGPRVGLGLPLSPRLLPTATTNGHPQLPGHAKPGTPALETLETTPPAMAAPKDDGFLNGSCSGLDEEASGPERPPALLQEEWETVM

[2] = target: T2, human PTHR, G protein-uncoupled conformation (R^0) (Homo sapiens, UniProt Q03431); assay: Competition binding to R0 conformation of hPTHR (COS-7 membranes, GTPγS, 125I-PTH(1-34) tracer); settings: Table 5; for R0:RG: fold weaker affinity for R0 than RG
T2 construct: expressed in transfected cells; host or cells: COS-7, transient (Fugene-6)
T2 sequence (Q03431 27-593): T1 sequence (Q03431 27-593)
Outline: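 Membranes from hPTHR-transfected COS-7 cells (20-100 μg/mL protein) incubated 90 min with radioligand (~150,000 cpm/ml) and unlabeled ligands, then filtered. Specific binding expressed as % of binding without competitor.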

hPTHR [3] = target: T1, hPTHR; assay: Delayed cAMP response after ligand wash-out in HKRK-B64 cells; assay type: cell-based; parameters: expressed in transfected cells; settings: HKRK-B64, 60 minutes after wash-out; read-out: cAMP response after wash-out, % of maximum response
hPTHR [4] = target: T1, hPTHR; assay: cAMP dose-response in HKRK-B64 cells; assay type: cell-based; parameters: expressed in transfected cells; settings: for cAMP in HKRK-B64 cells Emax: basal 5.2 ± 0.9 pmole/well not subtracted
[5] = target: T3, human PTHR, G protein-coupled conformation (RG) (Homo sapiens, UniProt Q03431); assay: Competition binding to RG conformation of hPTHR (COS-7 membranes, GαsND, 125I-[Aib1,3,M]PTH(1-15) tracer); settings: Table 5; read-out: IC50 RG, ^125I-PTH(1-15) + GsND
T3 construct: expressed in transfected cells; host or cells: COS-7, transient (Fugene-6); membranes
T3 sequence (Q03431 27-593): T1 sequence (Q03431 27-593)

Row | IP in COS-7/hPTHR cells Emax (hPTHR [1]) | R0:RG [2] | R0:RG ([2]; listed as His^5-PTH(1-34)) | Emax (hPTHR [3]) [%] | EC50 (hPTHR [4]; 30 min, room temperature, IBMX) [nM] | cAMP in HKRK-B64 cells Emax (hPTHR [4]) [picomole/well] | IC50 ([2]; IC50 RR^0, ^125I-PTH(1-34) + GTPγS) [nM] | IC50 [5] [nM] | Compound
1 | 2,231 ± 229 cpm/well | 753 | 750 | 34 | 2.7 | 59 ± 12 | – | – | CCCC[C@H](NC(=O)[C@H](CC(C)C)NC(=O)[C@H](CCC(N)=O)NC(=O)[C@H](Cc1c[nH]cn1)NC(=O)[C@H](CCC(=O)O)NC(=O)[C@H](CO)NC(=O)[C@@H](NC(=O)[C@H](C)N)C(C)C)C(=O)N[C@@H](Cc1c[nH]cn1)C(=O)N[C@@H](CC(N)=O)C(=O)N[C@@H](CC(C)C)C(=O)NCC(=O)N[C@@H](CCCCN)C(=O)N[C@@H](Cc1c[nH]cn1)C(=O)N[C@@H](CC(C)C)C(=O)N[C@@H](C)C(=O)N[C@@H](CO)C(=O)N[C@H](C(=O)N[C@@H](CCC(=O)O)C(=O)N[C@@H](CCCNC(=N)N)C(=O)N[C@@H](CCCC)C(=O)N[C@@H](CCC(N)=O)C(=O)N[C@@H](Cc1c[nH]c2ccccc12)C(=O)N[C@@H](CC(C)C)C(=O)N[C@@H](CCCNC(=N)N)C(=O)N[C@@H](CCCCN)C(=O)N[C@@H](CCCCN)C(=O)N[C@@H](CC(C)C)C(=O)N[C@@H](CCC(N)=O)C(=O)N[C@@H](CC(=O)O)C(=O)N[C@H](C(=O)N[C@@H](Cc1c[nH]cn1)C(=O)N[C@@H](CC(N)=O)C(=O)N[C@@H](Cc1ccc(O)cc1)C(N)=O)C(C)C)C(C)C [[His^5,Nle^8,21,Tyr^34]rPTH(1-34)NH2] (H-AVSEHQL[Nle]HNLGKHLASVER[Nle]QWLRKKLQDVHNY-NH2; N-terminus assumed)
2 | 2,407 ± 138 cpm/well | 5 | – | – | – | 55 ± 12 | 4.2 ± 0.5 | 0.86 ± 0.24 | CCCC[C@H](NC(=O)[C@H](CCCNC(=N)N)NC(=O)[C@H](CCC(=O)O)NC(=O)[C@@H](NC(=O)[C@H](CO)NC(=O)[C@H](C)NC(=O)[C@H](CC(C)C)NC(=O)[C@H](Cc1c[nH]cn1)NC(=O)[C@H](CCCCN)NC(=O)CNC(=O)[C@H](CC(C)C)NC(=O)[C@H](CC(N)=O)NC(=O)[C@H](Cc1c[nH]cn1)NC(=O)[C@H](CCCC)NC(=O)[C@H](CC(C)C)NC(=O)[C@H](CCC(N)=O)NC(=O)[C@@H](NC(=O)[C@H](CCC(=O)O)NC(=O)[C@H](CO)NC(=O)[C@@H](NC(=O)[C@H](C)N)C(C)C)[C@@H](C)CC)C(C)C)C(=O)N[C@@H](CCC(N)=O)C(=O)N[C@@H](Cc1c[nH]c2ccccc12)C(=O)N[C@@H](CC(C)C)C(=O)N[C@@H](CCCNC(=N)N)C(=O)N[C@@H](CCCCN)C(=O)N[C@@H](CCCCN)C(=O)N[C@@H](CC(C)C)C(=O)N[C@@H](CCC(N)=O)C(=O)N[C@@H](CC(=O)O)C(=O)N[C@H](C(=O)N[C@@H](Cc1c[nH]cn1)C(=O)N[C@@H](CC(N)=O)C(=O)N[C@@H](Cc1ccc(O)cc1)C(N)=O)C(C)C [[Nle^8,21,Tyr^34]rPTH(1-34)NH2, [Nle^8,21,Tyr^34]rat(r)PTH(1-34)NH2, reference compound]
